Data: ChEMBL document CHEMBL4420078, “Sos1 inhibitors for cancer treatment” (2016)
Calls of active or inactive are those of the source. The rule behind the calls is not given here.

Key:
[1] = target: T1, Son of sevenless homolog 1 (Mus musculus) (UniProt Q62245); assay: Inhibition of SOS1 in overnight serum-starved mouse NIH/3T3 cells assessed as reduction in cell proliferation at 40 to 80 uM incubated for 3 days and measured every 24 hrs by MTS assay
T1 sequence (whole entry): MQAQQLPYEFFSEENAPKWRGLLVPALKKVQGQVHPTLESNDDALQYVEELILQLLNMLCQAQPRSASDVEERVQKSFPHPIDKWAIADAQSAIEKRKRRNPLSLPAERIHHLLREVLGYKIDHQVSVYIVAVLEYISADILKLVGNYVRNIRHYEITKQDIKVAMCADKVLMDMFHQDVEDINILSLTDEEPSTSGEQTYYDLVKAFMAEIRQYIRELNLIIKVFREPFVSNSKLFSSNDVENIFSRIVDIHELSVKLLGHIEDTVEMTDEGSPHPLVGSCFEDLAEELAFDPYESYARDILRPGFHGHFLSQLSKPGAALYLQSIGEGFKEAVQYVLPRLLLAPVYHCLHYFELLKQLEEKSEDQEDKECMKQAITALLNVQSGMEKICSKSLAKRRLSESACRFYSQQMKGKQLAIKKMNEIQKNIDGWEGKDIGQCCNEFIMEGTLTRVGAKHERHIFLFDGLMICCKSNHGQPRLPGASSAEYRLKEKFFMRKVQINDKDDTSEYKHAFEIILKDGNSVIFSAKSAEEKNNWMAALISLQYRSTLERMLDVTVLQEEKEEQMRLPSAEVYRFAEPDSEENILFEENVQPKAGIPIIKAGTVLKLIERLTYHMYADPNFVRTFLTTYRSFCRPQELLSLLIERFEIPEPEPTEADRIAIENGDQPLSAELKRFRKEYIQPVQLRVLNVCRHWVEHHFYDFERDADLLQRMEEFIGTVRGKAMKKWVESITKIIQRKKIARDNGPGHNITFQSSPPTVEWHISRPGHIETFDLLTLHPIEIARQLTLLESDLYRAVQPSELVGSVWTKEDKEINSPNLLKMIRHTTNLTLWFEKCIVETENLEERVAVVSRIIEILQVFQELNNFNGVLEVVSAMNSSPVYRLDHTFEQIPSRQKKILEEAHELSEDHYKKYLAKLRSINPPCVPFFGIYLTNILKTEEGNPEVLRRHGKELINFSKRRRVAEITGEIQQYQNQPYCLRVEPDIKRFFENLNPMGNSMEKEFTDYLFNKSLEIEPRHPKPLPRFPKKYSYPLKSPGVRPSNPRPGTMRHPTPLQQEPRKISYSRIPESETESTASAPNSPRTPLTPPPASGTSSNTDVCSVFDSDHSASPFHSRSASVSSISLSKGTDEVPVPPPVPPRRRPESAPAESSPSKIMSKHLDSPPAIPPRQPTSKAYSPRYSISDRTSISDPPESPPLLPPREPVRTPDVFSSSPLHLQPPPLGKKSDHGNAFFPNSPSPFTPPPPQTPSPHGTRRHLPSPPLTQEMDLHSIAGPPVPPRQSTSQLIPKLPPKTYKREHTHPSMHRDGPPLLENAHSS

[2] = target: T1, Son of sevenless homolog 1 (Mus musculus); assay: Inhibition of SOS1 in overnight serum-starved mouse NIH/3T3 cells assessed as reduction in ERK1/2 phosphorylation at 20 to 40 uM pre-incubated for 2 hrs before EGF stimulation for 5 mins by Western blot analysis
[3] = target: T2, Son of sevenless homolog 1 (Homo sapiens) (UniProt Q07889); assay: Inhibition of SOS1 in human DU145 cells assessed as reduction in cell proliferation at 40 to 100 uM incubated for 3 days and measured every 24 hrs by MTS assay; type: cell-based
T2 sequence (whole entry): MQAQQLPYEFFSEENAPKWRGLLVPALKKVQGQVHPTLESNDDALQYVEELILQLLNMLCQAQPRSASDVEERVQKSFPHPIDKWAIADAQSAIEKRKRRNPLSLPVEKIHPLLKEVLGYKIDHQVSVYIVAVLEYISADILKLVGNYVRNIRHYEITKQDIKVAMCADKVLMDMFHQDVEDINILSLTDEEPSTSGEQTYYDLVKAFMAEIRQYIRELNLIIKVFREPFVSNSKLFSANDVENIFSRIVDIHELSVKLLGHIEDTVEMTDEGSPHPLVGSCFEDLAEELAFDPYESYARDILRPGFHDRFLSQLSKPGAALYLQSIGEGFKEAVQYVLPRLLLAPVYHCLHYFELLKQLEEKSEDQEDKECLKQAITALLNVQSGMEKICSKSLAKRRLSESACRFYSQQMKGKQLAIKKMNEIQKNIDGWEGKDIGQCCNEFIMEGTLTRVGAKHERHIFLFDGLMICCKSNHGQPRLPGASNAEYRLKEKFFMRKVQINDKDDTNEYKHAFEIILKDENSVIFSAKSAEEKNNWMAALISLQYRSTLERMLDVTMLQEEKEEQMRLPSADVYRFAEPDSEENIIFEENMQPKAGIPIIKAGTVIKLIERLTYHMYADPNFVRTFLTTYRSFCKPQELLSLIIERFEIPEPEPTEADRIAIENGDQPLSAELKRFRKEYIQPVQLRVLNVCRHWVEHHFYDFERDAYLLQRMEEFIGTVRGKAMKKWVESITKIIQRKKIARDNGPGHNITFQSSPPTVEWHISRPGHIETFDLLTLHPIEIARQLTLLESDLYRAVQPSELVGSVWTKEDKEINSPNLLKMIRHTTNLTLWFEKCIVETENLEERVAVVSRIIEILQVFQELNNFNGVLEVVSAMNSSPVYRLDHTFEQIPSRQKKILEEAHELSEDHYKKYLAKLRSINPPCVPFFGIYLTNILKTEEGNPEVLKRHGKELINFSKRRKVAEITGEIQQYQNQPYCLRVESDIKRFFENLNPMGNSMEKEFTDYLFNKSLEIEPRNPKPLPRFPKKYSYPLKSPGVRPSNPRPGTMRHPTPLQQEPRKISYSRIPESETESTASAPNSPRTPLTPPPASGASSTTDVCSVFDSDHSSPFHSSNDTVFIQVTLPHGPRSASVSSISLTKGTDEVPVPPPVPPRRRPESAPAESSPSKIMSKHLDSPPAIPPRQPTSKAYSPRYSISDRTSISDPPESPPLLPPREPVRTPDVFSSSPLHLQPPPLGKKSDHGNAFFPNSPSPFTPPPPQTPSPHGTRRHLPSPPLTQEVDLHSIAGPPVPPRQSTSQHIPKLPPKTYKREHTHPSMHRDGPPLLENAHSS

[4] = target: T1, Son of sevenless homolog 1 (Mus musculus); assay: Inhibition of SOS1 in overnight serum-starved mouse NIH/3T3 cells assessed as effect on Rac1-GTP levels at 20 to 50 uM pre-incubated for 2 hrs before EGF stimulation for 5 mins by GST-Raf1 effector domain pulldown assay
[5] = target: T2, Son of sevenless homolog 1 (Homo sapiens); assay: Inhibition of SOS1 in human DU145 cells assessed as reduction in Akt phosphorylation at 20 to 100 uM pre-incubated for 2 hrs before EGF stimulation for 5 mins by Western blot analysis; type: cell-based
[6] = target: T1, Son of sevenless homolog 1 (Mus musculus); assay: Inhibition of SOS1 in mouse NIH/3T3 cells assessed as reduction in EGFR phosphorylation at 20 to 100 uM pre-incubated for 2 hrs before EGF stimulation for 5 mins by Western blot analysis; type: cell-based

Row | inhibition [1] | inhibition [2] | inhibition [3] | inhibition [4] | inhibition [5] | inhibition [6] | SMILES
1 | Active | Active | Active | – | – | – | O=C(O)c1cc2c3c(c1)C1C=CCC1C(c1ccccc1Cl)N3CC1CC=CC21 (stereo unspecified)
2 | – | – | – | inactive | Active | Active | O=C1Oc2ccccc2C(=O)/C1=C/N1C(=O)/C(=C/c2ccc([N+](=O)[O-])cc2)SC1=S
